Laboratory results published in US20250360134A1, “6-6 OR 5-6 FUSED BICYCLIC COMPOUNDS COMPRISING A PYRI(MI)DINE RING USEFUL IN THE|TREATMENT OF INFECTIOUS DISEASES” (INSTITUT NATIONAL DE LA SANTE ET DE LA RECHERCHE MEDICALE …, priority 2020, published 2025).
Structures can show the parent of a compound that is named as a salt. Where two headings read alike, the source gives them in different places.

Assays:
[1] = Cytotoxicity evaluation, MTT; format: cell-based, human; conditions: HepG2 cells (hepatocarcinoma-derived, ATCC HB-8065); human HepG2 cells, 72 hours, MTT
Procedure: The aim of this assay was to evaluate the impact of metabolic activation of the tested compounds on cell viability.
A cytotoxicity evaluation was performed using the method reported in Emami S A et al., Iran J Basic Med Sci 2012; 15:807-11 to determine the cytotoxic concentrations 50% (CC50) and using doxorubicin as a cytotoxic reference compound. These assays were performed in human HepG2 cells. HepG2 cells were purchased from ATCC (ref HB-8065). These cells are a commonly used human hepatocarcinoma-derived cell line that has characteristics similar to those of primary hepatocytes. These cells express many hepatocyte-specific metabolic enzymes, thus enabling the cytotoxicity of tested product metabolites to be evaluated. Briefly, cells in 100 μl of complete RPMI medium [RPMI supplemented with 10% FCS, 1% 1-glutamine (200 mM), penicillin (100 U/ml), and streptomycin (100 μg/ml)] were inoculated into each well of 96-well plates and incubated at 37° C. in a humidified chamber in 6% CO2. After 24 hours, 100 μl of medium with test compound at various concentrations dissolved in DMSO (final concentration less than 0.5% v/v) was added, and the plates were incubated for 72 hours at 37° C. Duplicate assays were performed for each sample. Each well was microscopically examined for precipitate formation before the medium was aspirated from the wells. After aspiration, 100 μl of MTT solution (0.5 mg/ml in medium without FCS) were then added to each well. Cells were incubated for 2 hours at 37° C. MTT solution was removed, and DMSO (100 μl) was added to dissolve the resulting blue formazan crystals. Plates were shaken vigorously (300 rpm) for 5 min. The absorbance was measured at 570 nm with 630 nm as reference wavelength in a BIO-TEK ELx808 Absorbance Microplate Reader. DMSO was used as blank and doxorubicin (Sigma-Aldrich) as positive control. Cell viability was calculated as percentage of control (cells incubated without compound).

[2] = system: Plasmodium telomeric sequence FPf1T; assay: FRET-melting, FPf1T; conditions: K+ condition, 2 μM compound, 0.2 μM oligonucleotide
[3] = system: Plasmodium telomeric sequence FPf8T; assay: FRET-melting, FPf8T; conditions: K+ condition, 2 μM compound, 0.2 μM oligonucleotide
[4] = system: human telomeric sequence F21T; assay: FRET-melting, F21T; conditions: K+ condition, 2 μM compound, 0.2 μM oligonucleotide
Plasmodium falciparum W2 = assay: In vitro antiplasmodial activity, SYBR Green I, strain W2; conditions: Plasmodium falciparum, W2, 48 h, read-out: IC50 Plasmodium falciparum W2, chloroquine-resistant strain W2, 48-hour incubation
[5] = system: T. brucei brucei AnTat 1.9; assay: In vitro antitrypanosomal activity, Alamar Blue assay; format: cell-based, Trypanosoma brucei brucei; conditions: Trypanosoma brucei, read-out: IC50 T. brucei brucei
Procedure: The effects of the tested compounds on the growth of T. brucei brucei were assessed using an Alamar Blue® assay described in B. Raz et al., Acta Trop. 1997, 68, 139. T. brucei brucei AnTat 1.9 (IMTA, Antwerpen, Belgium) was cultured in MEM with Earle's salts, supplemented according to the protocol disclosed in T. Baltz et al., EMBO J. 1985, 4, 1273, with the following modifications: 0.5 mM mercaptoethanol (Sigma-Aldrich), 1.5 mM 1-cysteine (Sigma-Aldrich), 0.05 mM bathocuproine sulfate (Sigma-Aldrich), and 20% heat-inactivated horse serum (Gibco, France) at 37° C. and 5% CO2. Samples were incubated at an average density of 2000 parasites/well in sterile 96-well plates (Fisher, France) with various concentrations of compounds dissolved in 0.9% NaCl. All doses were tested in duplicate. Appropriate controls treated with solvents 0.9% NaCl or DMSO or with suramin, pentamidine, eflornithine, and fexinidazole (reference drugs purchased from Sigma-Aldrich and Fluorochem, UK) were added to each set of experiments. After a 69-hour incubation at 37° C., 10 μl of the viability marker Alamar Blue (Fisher) was added to each well, and the plates were incubated for 5 hour. The plates were read in a PerkinElmer ENSPIRE (Germany) microplate reader using an excitation wavelength of 530 nm and an emission wavelength of 590 nm. The IC50 was defined as the concentration of drug necessary to inhibit by 50% the activity of T. brucei brucei compared to the control. IC50 values were calculated using a non-linear regression analysis of dose-response curves performed using GraphPad Prism software (USA). IC50 values were calculated from three independent experiments.

[6] = system: Trypanosoma 9 and 11 chromosomic sequence FTrypBT; assay: FRET-melting, FTrypBT; conditions: K+ condition, 2 μM compound, 0.2 μM oligonucleotide
[7] = system: human duplex sequence FdxT; assay: FRET-melting, FdxT; conditions: duplex control, K+ condition, 2 μM compound, 0.2 μM oligonucleotide
[8] = system: Plasmodium falciparum 3D7; assay: In vitro antiplasmodial activity, SYBR Green I, strain 3D7; conditions: Plasmodium falciparum, 3D7, 48 h, read-out: IC50 Plasmodium falciparum 3D7, chloroquine-sensitive strain 3D7, 48-hour incubation
Procedure: The in vitro antiplasmodial activities were tested over concentrations ranging from 39 to 40 μm against culture-adapted Plasmodium falciparum: reference strains 3D7 and W2. […] The parasites were cultivated in RPMI medium (Sigma-Aldrich, Lyon, France) supplemented with 0.5% Albumax I (Life Technologies Corporation, Paisley, UK), hypoxanthine (Sigma-Aldrich), and gentamicin (Sigma-Aldrich) with human erythrocytes and were incubated at 37° C. in a candle jar, as described in Desjardins R E et al., Antimicrob Agents Chemother, 1979; 16:710-18.
The P. falciparum drug susceptibility test was carried out in 96-well flat bottom sterile plates in a final volume of 250 μL. After a 48-hour incubation with the drugs, quantities of DNA in treated and control cultures of parasites in human erythrocytes were quantified using the SYBR Green I (Sigma-Aldrich) fluorescence-based method as described in Bennett T N et al, Antimicrob Agents Chemother, 2004; 48:1807-10. Briefly, after incubation, plates were frozen at −20° C. until use. Plates were then thawed for 2 hours at room temperature, and 100 μL of each homogenized culture was transferred to a well of a 96-well flat bottom sterile black plate (Nunc, Inc., Rochester, NY) that contained 100 μL of the SYBR Green I lysis buffer (2×SYBR Green, 20 mM Tris base pH 7.5, 5 mM EDTA, 0.008% w/v saponin, 0.08% w/v Triton X-100). […] Plates were incubated for 1 hour at room temperature and then read on a fluorescence plate reader (Tecan, Grödig, Austria) using excitation and emission wavelengths of 485 and 535 nm, respectively. Concentrations inhibiting 50% of the parasite's growth (half maximal inhibitory concentration or IC50 values) were then calculated from the obtained experimental results by non-linear regression analysis of data from dose-response curves, using TableCurve 2D version 5.0 software (Systat Software, San Jose, CA). IC50 values are reported as means calculated from three independent experiments, as described in H. Kaddouri et al., Antimicrob.

[9] = 69-hour incubation, Alamar Blue

Structure (SMILES)	IC50 at 72 h [1] [nM]	FRET-melting values in K+ conditions at 2 μM ΔTm FPf1T [2] [°C]	FRET-melting values in K+ conditions at 2 μM ΔTm FPf8T [3] [°C]	FRET-melting values in K+ conditions at 2 μM ΔTm F21T [4] [°C]	IC50 (Plasmodium falciparum W2) [nM]	IC50 ([5]; 69 h) [nM]	FRET-melting values in K+ conditions at 2 μM ΔTm FtryBT [6] [°C]	FRET-melting values in K+ conditions at 2 μM ΔTm FdxT [7] [°C]	IC50 [8] [nM]	IC50 [5, 9] [nM]
CN(C)CCCNCc1ccc(-c2nc(-c3ccc(CNCCCN(C)C)s3)nc3c2ccn3-c2ccccc2)cc1 [Compound 7B, 4-{4-[(3-Dimethylaminopropyl)aminomethyl]phenyl}-2-{5-[(3-dimethylaminopropyl)aminomethyl]thien-2-yl}-7-phenyl-7H-pyrrolo[2,3-d]pyrimidine oxalate]	1910	11.5	12.8	13.8	2390 ± 80	630 ± 70	10.5	−0.3	880 ± 240	
CN1CCN(CCCNCc2ccc(-c3nc(-c4ccc(CNCCCN5CCN(C)CC5)cc4)c4ccn(C)c4n3)cc2)CC1 [Compound 9B, 2,4-bis{4-[(3-(4-methylpiperazin-1-yl)propyl)aminomethyl]phenyl}-7-methyl-7H-pyrrolo[2,3-d]pyrimidine oxalate]	39500	10.1	10.1	10.4	130 ± 50	1000 ± 100	8.4	0.0	17800 ± 3490	
CN(C)CCCNCc1ccc(-c2nc(Cl)nc3c2ccn3-c2ccccc2)s1 [Compound 19B, 2-Chloro-4-{5-[(3-dimethylaminopropyl)aminomethyl]thien-2-yl}-7-phenyl-7H-pyrrolo[2,3-d]pyrimidine oxalate]	1880			6.2	4560 ± 560	50 ± 10		−1.8	1970 ± 360	
CN(C)CCCNCc1ccc(-c2nc(NCCCN(C)C)nc3sccc23)cc1 [Compound 28B, 2-(3-Dimethylaminopropylamino)-4-{4-[(4-dimethylaminopropyl)aminomethyl]phenyl}thieno[2,3-d]pyrimidine oxalate]	35200			2.41	11500 ± 2470			−0.77	30	1100 ± 260
CN1CCN(CCCNCc2ccc(-c3nc(Cl)nc4[nH]ccc34)cc2)CC1 [Compound 16B, 2-Chloro-4-{4-[(3-(4-methylpiperazin-1-yl)propyl)aminomethyl]phenyl}-7H-pyrrolo[2,3-d]pyrimidine oxalate]	63500			0.8	25900 ± 4630	1340 ± 250		0.1	10500 ± 230	
CN(C)CCCNCc1ccc(-c2nc(Cl)nc3c2ccn3-c2ccccc2)cc1 [Compound 17B, 2-Chloro-4-{4-[(3-dimethylaminopropyl)aminomethyl]phenyl}-7-phenyl-7H-pyrrolo[2,3-d]pyrimidine oxalate]	2870				290 ± 40	20		−0.2	1010 ± 410	
CN(C)CCCNCc1ccc(-c2nc3c(c(-c4ccc(CNCCCN(C)C)cc4)n2)CCNC3)cc1 [Compound 25B, 2,4-Bis{4-[(3-dimethylaminopropyl)aminomethyl]phenyl})-5,6,7,8-dihydropyrido[3,4-d]pyrimidine oxalate]		10.7	11.1	12.3	2230 ± 230		8.0	−0.9	790 ± 120	2430 ± 100
CN1CCN(CCCNCc2ccc(-c3nc(-c4ccc(CNCCCN5CCN(C)CC5)cc4)c4ccn(-c5ccccc5)c4n3)cc2)CC1 [Compound 2B, 2,4-bis{4-[(3-(4-methylpiperazin-1-yl)propyl)aminomethyl]phenyl}-7-phenyl-7H-pyrrolo[2,3-d]pyrimidine oxalate]	1080	19.1	20.0	19.6	1010 ± 160	880 ± 70	17.3	0.7		
COC(=O)C(CCCCNCc1ccc(-c2nc(-c3ccc(CNCCCCC(NC(=O)OC(C)(C)C)C(=O)OC)cc3)c3ccn(C)c3n2)cc1)NC(=O)OC(C)(C)C (centres unmarked) [Compound 10B, 2,4-Bis{4-[(5-(tert-butoxycarbonylamino)-5-methoxycarbonyl)pentyl)aminomethyl]phenyl}-7-methyl-7H-pyrrolo[2,3-d]pyrimidine oxalate]		10.1	11.0	11.8	4360 ± 1700		8.9	−1.0	610 ± 240	7050 ± 660
CN(C)CCCNCc1ccc(-c2nc(Cl)nc3[nH]ccc23)cc1 [Compound 15B, 2-Chloro-4-{4-[(3-dimethylaminopropyl)aminomethyl]phenyl}-7H-pyrrolo[2,3-d]pyrimidine oxalate]	23700			0.3	15200 ± 2080	510 ± 70		0.1	10300 ± 220	
